Measurements taken from paper PMC7732027 (Bioorganic & medicinal chemistry letters, 2019).

Tested on: influenza A virus PR8-GLuc (H1N1) strain
Assay type: cell-based

| SMILES | decrease of potency versus Pimodivir [times] |
| --- | --- |
| Cl.O=C(O)[C@H]1C2CCC(C3CC32)[C@@H]1Nc1nc(-c2c[nH]c3ncc(F)cc23)ncc1F (some centres unmarked) [13b] | 12 |
| Cl.O=C(O)C12CC3CC(CC(Nc4nc(-c5c[nH]c6ncc(F)cc56)ncc4F)(C3)C1)C2 [13d] | 230 |
